Reference: patent US20050282786A1, “Method for reducing c-rective protein levels with non-antibacterial tetracycline formulations” (priority 2002, published 2005)
Values joined by “and” are separate entries in the source; they are usually repeats but may differ in a detail not shown here. Equal values may be shown once. Where a name gives a salt, the structure may show the parent alone.

Key:
[1] = test system: C-reactive protein (CRP); experiment: Prospective randomized six-month study of low-dose doxycycline versus placebo: C-reactive protein levels in patients after acute coronary syndrome; assay type: in vivo, human; details: for 6-Month CRP level: after six months of therapy, P<0.05 vs baseline; for 6-Month CRP level / Baseline CRP level: mean ± S.E.M.; for Reduction Due To Treatment (CRP): six months vs baseline; for Baseline CRP level / Baseline CRP: study entry; for Six Month CRP: six months
Procedure: A prospective, randomized study was conducted over six (6) months to investigate the effectiveness of low-dose doxycycline (LDD) versus placebo, in the prevention of subsequent plaque rupture events in patients enrolled after an initial acute coronary syndrome.
Biochemical markers of inflammation were assessed at study entry and after six (6) months of therapy in a subset of patients. A total of thirty (30) patients completed the study of whom thirteen (13) were randomized to placebo and seventeen (17) to LDD. There were no significant differences in age, male gender, hypertension, diabetes, smoking, previous cardiac history, extent of coronary disease, presentation with acute myocardial infarction or unstable angina, or percutaneous coronary intervention between LDD and placebo treated patients.
At six months clinical follow-up, there was no difference in the composite endpoint of cardiovascular death, myocardial infarction or troponin-positive unstable angina in LDD compared to placebo treated patients. […] In placebo-treated patients, CRP was 5.2 μg/ml at study entry and 4.9 μg/ml at six months (P=not significant (n.s.)).
Patients with higher baseline CRP levels were reduced by 58% from 7.2 μg/ml to 3.0 μg/ml (P<0.001). In placebo-treated patients with higher baseline CRP, CRP levels were decreased by 23% (7.1 μg/ml to 5.5 μg/ml).

[2] = CMT-3 serum levels in humans; assay type: in vivo, human; details: dose of about 10 to about 20 mg/day
Procedure: Non-antibacterial tetracycline compounds can be used in higher amounts than antibacterial tetracyclines, while avoiding the indiscriminate killing of bacteria, and the emergence of resistant bacteria. For example, 6-demethyl-6-deoxy-4-dedimethylaminotetracycline (CMT-3) may be administered in doses of about 10 to about 200 mg/day, or in amounts that result in serum levels in humans of about 1.0 μg/ml to about 10 μg/ml. For example, a dose of about 10 to about 20 mg/day produces serum levels in humans of about 1.0 μg/ml.

[3] = 250 mg every six hours over a twenty-four hour period; cited from earlier work
[4] = single dose of two 100 mg tablets, adult human; cited from earlier work
[5] = all LDD patients (n = 17), listed as Low-Dose Doxycycline
[6] = patients with higher CRP (>5 μg/ml)
[7] = patients with lower baseline CRP (≦5 μg/ml)

## C[C@H]1c2cccc(O)c2C(=O)C2=C(O)[C@]3(O)C(=O)C(C(N)=O)=C(O)[C@@H](N(C)C)[C@@H]3[C@@H](O)[C@@H]21 [LDD, doxycycline]
[1]; all LDD patients (n = 17)
  6-Month CRP level: 2.6 µg/mL
  Reduction Due To Treatment (CRP): 46%
  Baseline CRP level: 4.8 µg/mL
[1]; [5]
  6-Month CRP level: 2.6 ± 0.4 µg/mL
  Reduction Due To Treatment (CRP): 45%
  Baseline CRP level: 4.8 ± 0.6 µg/mL
[1]; [6]
  Reduction Due To Treatment (CRP): 58%
  Baseline CRP: 7.2 µg/mL and 7.2 ± 0.6 µg/mL
[1]; patients with higher CRP (>5 μg/ml), P<0.001 vs baseline
  Six Month CRP: 3.0 μg/ml and 3.0 ± 0.7^a μg/ml
[1]; [7]
  Reduction Due To Treatment (CRP): 23%
  Baseline CRP: 3.0 µg/mL and 3.0 ± 0.4 µg/mL
[1]; patients with lower baseline CRP (≦5 μg/ml), n.s. vs baseline
  Six Month CRP: 2.3 μg/ml and 2.3 ± 0.5^b μg/ml

## NC(=O)C1=C(O)CC2CC3Cc4cccc(O)c4C(=O)C3=C(O)C2(O)C1=O (stereo not drawn) [CMT-3, 4-dedimethylaminosancycline]
[2]
  serum levels in humans: about 1.0 μg/ml

## CN(C)[C@@H]1C(O)=C(C(N)=O)C(=O)[C@@]2(O)C(O)=C3C(=O)c4c(O)cccc4[C@@](C)(O)[C@H]3C[C@@H]12 [tetracycline HCl]
[3]
  peak plasma concentration: approximately 3 μg/ml

## CN(C)c1ccc(O)c2c1C[C@H]1C[C@H]3[C@H](N(C)C)C(O)=C(C(N)=O)C(=O)[C@@]3(O)C(O)=C1C2=O [minocycline HCl]
[4]
  minocycline serum level, average: 2.24 µg/mL
